{"source": "ChEMBL document CHEMBL4219204", "about": "“Structure-based design and discovery of potent and selective KDM5 inhibitors” (Bioorg Med Chem Lett, 2018)", "key": {"[1]": {"biological_target": "T1, Lysine-specific demethylase 3A (Homo sapiens, UniProt Q9Y4C1)", "T1 sequence (Q9Y4C1 whole entry)": "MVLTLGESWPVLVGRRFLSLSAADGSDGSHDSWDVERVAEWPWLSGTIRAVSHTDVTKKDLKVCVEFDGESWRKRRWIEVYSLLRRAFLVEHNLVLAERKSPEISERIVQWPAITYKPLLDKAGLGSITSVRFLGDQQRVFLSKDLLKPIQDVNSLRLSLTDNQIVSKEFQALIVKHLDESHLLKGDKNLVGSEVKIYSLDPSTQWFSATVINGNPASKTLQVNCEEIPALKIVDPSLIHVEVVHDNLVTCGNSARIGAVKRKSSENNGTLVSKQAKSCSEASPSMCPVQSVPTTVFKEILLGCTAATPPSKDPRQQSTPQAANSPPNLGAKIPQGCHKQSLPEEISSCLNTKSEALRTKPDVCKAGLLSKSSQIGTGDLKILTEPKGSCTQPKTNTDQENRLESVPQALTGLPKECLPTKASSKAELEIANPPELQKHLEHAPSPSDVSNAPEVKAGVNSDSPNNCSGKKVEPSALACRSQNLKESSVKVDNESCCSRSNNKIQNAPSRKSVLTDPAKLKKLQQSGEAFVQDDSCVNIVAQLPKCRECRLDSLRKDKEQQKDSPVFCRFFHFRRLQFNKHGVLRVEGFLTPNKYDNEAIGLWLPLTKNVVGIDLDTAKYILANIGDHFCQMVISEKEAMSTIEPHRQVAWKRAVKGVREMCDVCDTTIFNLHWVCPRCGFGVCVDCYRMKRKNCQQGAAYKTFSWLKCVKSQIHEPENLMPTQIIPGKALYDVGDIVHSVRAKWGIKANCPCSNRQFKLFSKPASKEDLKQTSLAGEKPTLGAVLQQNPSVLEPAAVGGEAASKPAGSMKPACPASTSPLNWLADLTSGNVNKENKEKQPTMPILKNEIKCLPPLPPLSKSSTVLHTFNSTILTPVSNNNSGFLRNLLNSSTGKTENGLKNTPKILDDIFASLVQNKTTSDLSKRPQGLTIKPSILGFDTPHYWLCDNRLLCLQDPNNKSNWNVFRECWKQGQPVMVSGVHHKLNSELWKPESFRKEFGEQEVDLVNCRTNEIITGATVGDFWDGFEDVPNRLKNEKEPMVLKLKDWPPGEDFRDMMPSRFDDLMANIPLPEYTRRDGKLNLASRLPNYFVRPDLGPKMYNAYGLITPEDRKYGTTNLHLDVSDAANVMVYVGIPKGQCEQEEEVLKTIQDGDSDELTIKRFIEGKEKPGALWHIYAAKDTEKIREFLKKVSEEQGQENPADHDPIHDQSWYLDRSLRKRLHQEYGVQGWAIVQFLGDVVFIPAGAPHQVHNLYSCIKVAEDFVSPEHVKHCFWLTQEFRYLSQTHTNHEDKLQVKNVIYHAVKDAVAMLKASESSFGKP", "test": "Inhibition of KDM3A (unknown origin)"}, "[2]": {"biological_target": "T2, Lysine-specific demethylase 2A (Homo sapiens, UniProt Q9Y2K7)", "T2 sequence (Q9Y2K7 whole entry)": "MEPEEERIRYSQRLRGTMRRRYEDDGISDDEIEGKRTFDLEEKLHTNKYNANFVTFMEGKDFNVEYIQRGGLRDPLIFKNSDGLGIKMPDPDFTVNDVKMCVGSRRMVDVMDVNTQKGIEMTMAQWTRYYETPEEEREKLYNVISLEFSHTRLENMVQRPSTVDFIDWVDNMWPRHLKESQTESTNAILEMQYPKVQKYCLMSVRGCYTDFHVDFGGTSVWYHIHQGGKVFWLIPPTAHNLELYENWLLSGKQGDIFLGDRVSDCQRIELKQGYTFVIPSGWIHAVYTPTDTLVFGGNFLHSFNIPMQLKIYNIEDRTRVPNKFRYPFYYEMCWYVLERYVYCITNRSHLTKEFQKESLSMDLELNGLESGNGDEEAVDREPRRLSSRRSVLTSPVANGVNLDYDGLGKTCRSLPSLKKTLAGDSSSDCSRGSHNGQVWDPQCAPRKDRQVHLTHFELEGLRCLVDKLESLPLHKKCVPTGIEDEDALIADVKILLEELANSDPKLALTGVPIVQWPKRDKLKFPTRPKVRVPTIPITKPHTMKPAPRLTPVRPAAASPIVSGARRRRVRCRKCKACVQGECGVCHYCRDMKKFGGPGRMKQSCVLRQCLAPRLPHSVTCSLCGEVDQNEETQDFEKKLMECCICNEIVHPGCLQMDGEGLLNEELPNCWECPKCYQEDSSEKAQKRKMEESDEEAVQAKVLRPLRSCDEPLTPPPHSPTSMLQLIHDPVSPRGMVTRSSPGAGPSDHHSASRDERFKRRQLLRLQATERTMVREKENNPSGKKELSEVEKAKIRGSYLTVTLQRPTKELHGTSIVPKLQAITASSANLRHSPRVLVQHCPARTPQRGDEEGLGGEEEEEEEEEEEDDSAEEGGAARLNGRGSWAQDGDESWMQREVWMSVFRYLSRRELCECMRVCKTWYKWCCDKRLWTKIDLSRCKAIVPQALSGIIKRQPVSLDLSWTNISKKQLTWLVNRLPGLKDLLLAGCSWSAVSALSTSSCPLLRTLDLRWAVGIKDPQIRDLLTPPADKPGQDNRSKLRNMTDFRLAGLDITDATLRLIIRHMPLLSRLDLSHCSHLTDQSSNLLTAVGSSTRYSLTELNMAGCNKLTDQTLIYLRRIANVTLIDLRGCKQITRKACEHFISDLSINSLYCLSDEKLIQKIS", "test": "Inhibition of KDM2A (unknown origin)"}}}
{"smiles": "Cc1cc(Cl)ccc1COc1ccnn1-c1cc(C(=O)O)ccn1", "values": [{"measurement": "IC50", "setting": "[1]", "result": 2300, "unit": "nM"}, {"measurement": "IC50", "setting": "[2]", "result": 820, "unit": "nM"}]}
